4 compounds from article PMC4139342, “Pharmacokinetics-Pharmacodynamics Analysis of Bicyclic 4-Nitroimidazole Analogs in a Murine Model of Tuberculosis” (PLoS ONE, 2014) can be followed below.

The Kp is tissue or fluid exposure divided by exposure in the circulation. As usually defined, the half-life is how long it takes for the measured level to halve. Low readings indicate rapid decline, high ones slow decline. By Vd is commonly meant the apparent volume that relates the amount in the body to the concentration in plasma or blood. A low value points to little distribution into tissue. For orientation: clearance means the rate of elimination divided by the concentration. High values mean a high capacity for elimination, low ones a low capacity for elimination. For orientation: logP means a log measure of how a compound divides between an organic and an aqueous phase. The term solubility denotes how much of the substance goes into solution per volume. A low value points to little dissolved substance. The term AUC denotes the area under the concentration-time curve, a measure of exposure. A higher AUC goes with more exposure. What is called Cmax is the highest concentration seen after dosing. By bioavailability is commonly meant dose-corrected exposure relative to a reference, in per cent. In general, CC50 refers to the concentration that lowers cell viability or growth by half. By Tmax is commonly meant the time at which the peak concentration occurs.

Values after ≈ are worked out from the molar mass of the structure shown. Where two headings read alike, the source gives them in different places. Some results are limits rather than exact numbers.

For data set [1] the following is noted: female, CD-1, mouse, in vivo, po, 25 mg/kg.
Data set [2] can be described thus: in vivo. As to conditions: female, CD-1, mouse, po, 25 mg/kg.
Data set [3] concerns M. tuberculosis (Mtb) (H37Rv, ATCC 27294). The data set is described as follows: microbe, parasite or virus in culture. Type of data set: cell-based. The following applies: Mycobacterium tuberculosis.
Data set [4] is described as follows: In vivo plasma PK after intravenous dosing. As to conditions: female, CD-1, mouse, plasma, iv, 5 mg/kg, T1/2 (i.v), mice, i.v. dosing at 5 mg/kg.
Data set [5] can be described thus: In vivo plasma PK after oral dosing in CM-2 formulation. The following applies: female, CD-1, mouse, plasma, po, 25 mg/kg.
A short description of data set [6]: in vivo. The following applies: female, CD-1, mouse, iv, 5 mg/kg; for clearance: i.v. CL.
Data set [7] is described as follows: In vivo lung PK after oral dosing. The following applies: female, CD-1, mouse, 25 mg/kg.
Data set [8] in a line: physchem.
A short description of data set [9]: physchem. As to conditions: pH 6.8, aqueous buffer, thermodynamic from solid.
Data set [10] can be described thus: in vivo. The following applies: female, CD-1, mouse, po, 25 mg/kg. The source holds these as a separate data set.
Data set [11] is described as follows: Cytotoxicity against THP1 macrophage cell lines. Type of data set: cell-based. The following applies: human.

As to `CC[C@@H]1Oc2nc([N+](=O)[O-])cn2C[C@@H]1NCc1ccc(OC(F)(F)F)c(F)c1` [NI-176], the “PAMPA %FA” value stood at 99% and the “PAMPA Log Pe” value was “–3.7 cm/sec”. In data set [1], the “Lung AUC24” value came out at 30.3 µg·h/g and the “Lung Cmax” value is listed as 4.8 µg/g. Also, the Kp in the data set “in vivo [2]” (Lung to Plasma ratio AUC24) was 2.2. In addition, the Kp in “in vivo [2]” (Lung to Plasma ratio Cmax) was found to be 2.2. In [3], this compound returned an MIC99 of 0.03 µg/mL (≈ 0.0742 µM). The compound further gave a half-life in data set [4] of 1 h. Also, in [5], the half-life was 4.3 h. In the data set “in vivo [6]”, this compound came in with a Vd of 1.8 L/kg and a clearance of 22.2 mL/min/kg. In data set [7], the half-life was 4.3 h. Also, in “physchem [8]”, the logP was 3.5. In the data set “physchem [9]”, this compound displayed a solubility of 8 µg/mL (≈ 19.8 µM). In “in vivo [10]”, this compound showed an AUC of 13700 ng·h/mL, a Cmax of 2200 ng/mL and a bioavailability of 86%. Also, in data set [11], the CC50 was over 10 µg/mL.
For the compound `COc1ccc(C[C@H](N)C(=O)N[C@H]2[C@@H](O)[C@H](n3cnc4c(N(C)C)ncnc43)O[C@@H]2CO)cc1` [Puromycin, reference compound], the CC50 in data set [11] (THP1 macrophage cell lines, read-out: Cytotoxicity CC50) came to 1.4 µg/mL (≈ 2.97 µM).
For `CC[C@@H]1Oc2nc([N+](=O)[O-])cn2C[C@@H]1OCc1ccc(OC(F)(F)F)cc1` [NI-145], the “PAMPA %FA” value is 99% and the “PAMPA Log Pe” value is on record as “–3.85 cm/sec”. Moreover, in data set [1], the “Lung AUC24” value came to 34.6 µg·h/g and the “Lung Cmax” value was 4.2 µg/g. Moreover, the Tmax in “in vivo [2]” is 2 h. Also, the Kp in the data set “in vivo [2]” (Lung to Plasma ratio AUC24) came to 2.1. In addition, the Kp in the data set “in vivo [2]” (Lung to Plasma ratio Cmax) came to 2.3. The compound further displayed an MIC99 in data set [3] of 0.06 µg/mL (≈ 0.155 µM). This compound also showed a half-life in data set [4] of 2 h. The compound also gave a half-life in data set [5] of 4.2 h. Further, in the data set “in vivo [6]”, the Vd came to 1.7 L/kg and the clearance amounted to 17 mL/min/kg. The half-life in data set [7] is 4.1 h. In the data set “physchem [8]”, this compound had a logP of 3.85. In addition, the solubility in the data set “physchem [9]” was under 2 µg/mL. Besides, in “in vivo [10]”, the AUC stood at 16200 ng·h/mL, the Cmax came out at 1800 ng/mL, the Tmax worked out at 2 h and the bioavailability came out at 68%. In addition, in [11], the CC50 was over 10 µg/mL.
On to `CC[C@@H]1Oc2nc([N+](=O)[O-])cn2C[C@@H]1NCc1ccc(OC(F)(F)F)cc1` [NI-269], for which the “PAMPA %FA” value is recorded as 99% and the “PAMPA Log Pe” value is “–3.7 cm/sec”. Also, in data set [1], the “Lung AUC24” value is 27.5 µg·h/g and the “Lung Cmax” value was determined as 5.4 µg/g. In addition, the Tmax in the data set “in vivo [2]” amounted to 0.3 h. Further, the Kp in “in vivo [2]” (Lung to Plasma ratio AUC24) came out at 1.7. The Kp in the data set “in vivo [2]” (Lung to Plasma ratio Cmax) was 1.9. In [3], this compound returned an MIC99 of 0.03 µg/mL (≈ 0.0777 µM). Moreover, in [4], the half-life is 2.1 h. The same compound gave a half-life in [5] of 3.8 h. In addition, in “in vivo [6]”, the Vd is 2.6 L/kg and the clearance is 19.7 mL/min/kg. In [7], this compound gave a half-life of 2.7 h. Besides, the logP in the data set “physchem [8]” is 3.15. For the same compound, the concentration in solution in “physchem [9]” (solubility) came to 12 µg/mL (≈ 31.1 µM). In addition, in the data set “in vivo [10]”, the AUC was 16000 ng·h/mL, the concentration peaked (Cmax) at 2800 ng/mL, the Tmax came to 0.3 h and the bioavailability was 88%. This compound had a CC50 in data set [11] of over 10 µg/mL.
